Reference: publication PMC7073886, “Structure–Bioactivity Relationships of Lapatinib Derived Analogs against Schistosoma mansoni” (ACS Medicinal Chemistry Letters, 2020)

Key:
[1] = Log D7.4 shake-flask octanol-water; assay type: physicochemical; conditions: pH 7.4
Method: Log D7.4. Shake-flask octanol-water distribution coefficient was determined at pH 7.4 (Log D7.4). The aqueous solution used is 10 mM sodium phosphate pH 7.4 buffer. The method has been validated for Log D7.4 ranging from -2 to 5.0.
Human Plasma Protein Binding (PPB). PPB was determined using equilibrium dialysis (RED device) to separate free from bound compound. The amount of compound in plasma (10 µM initial concentration) and in dialysis buffer (pH 7.4 phosphate buffer) was measured by LC-MS/MS after equilibration at 37 °C in a dialysis chamber. The fraction unbound (fu) is reported.
Human Liver Microsomal Clint. In vitro intrinsic clearance was determined from human liver microsomes using a standard approach.11 Following incubation and preparation, the samples were analyzed using […]
Rat Hepatocyte Clint. In vitro intrinsic clearance was determined from rat hepatocytes using a standard approach.11 Following incubation and preparation, the samples were analyzed using LC/MS/MS. Refined […]
Calculated LogP and LogD values. Both LogP and LogD predictions are based on a modified version of the method12 where the predicted partition coefficients are composed of the molecules’ atomic increments.
General Chemistry. All starting materials were commercially obtained and were used without further purification, unless specified. Reaction solvents were purified by passage through alumina columns on a purification system manufactured by Innovative Technology (Newburyport, MA). NMR spectra were obtained on Varian NMR systems, operating at 400 or 500 MHz for 1 H acquisitions. LCMS analysis was performed using a Waters AllianceHT e2795 reverse phase HPLC (Waters SunFire C18 4.6 × 50 mm, 3.5 μm column), with a Waters 2996 photodiode array detector scanning from 210 nm to 600 nm, and Waters Micromass ZQ detector (electrospray ionization). Where required, final compounds were purified by preparative reverse phase HPLC (columns Waters Symmetry RP8 30 × 50 mm, 5 μm column, or OBD RP18 30 × 50 mm, 5 μm), with a single wavelength UV−visible detector and Waters Micromass ZQ (electrospray ionization).

[2] = Rat hepatocyte Clint; assay type: in vitro ADME; conditions: rat hepatocytes, intrinsic clearance; read-out: RH CLint
[3] = system: adult S. mansoni; assay: Phenotypic screen of adult S. mansoni worms, severity scores and descriptors; assay type: cell-based, Schistosoma mansoni; conditions: for Descriptors (10 µM) 1 h / Severity Scores (10 μM) 1 h / Descriptors (10 µM) 5 h / Severity Scores (10 μM) 5 h / Descriptors (10 µM) 24 h / Severity Scores (10 μM) 24 h / Descriptors (10 µM) 48 h / Severity Scores (10 μM) 48 h: adult S. mansoni; for Descriptors (10 µM) 1 h / Descriptors (10 µM) 5 h / Descriptors (10 µM) 24 h / Descriptors (10 µM) 48 h: phenotypic descriptors; for Severity Scores (10 μM) 1 h / Severity Scores (10 μM) 5 h / Severity Scores (10 μM) 24 h / Severity Scores (10 μM) 48 h: scale 0 (no activity) to 4 (maximal activity); for bioactivity against adult S. mansoni: adult schistosomes; for Severity Scores (10 μM) 1 h / Severity Scores (10 μM) 5 h / Severity Scores (10 μM) 24 h / bioactivity against adult S. mansoni / Severity Scores (10 μM) 48 h: 10 μM
Source text: Because the schistosome parasite can present multiple and dynamic phenotypic responses to chemical insult,[16] we employ a constrained nomenclature of descriptors to describe the changes in the parasite as a function of time and concentration (e.g., motility, density, and shape; and in the case of the adult parasite, an inability to adhere to the bottom of the assay dish). These descriptors are converted into severity scores on a scale of 0 (green)–4 (severest/red) that allow for partially quantitative comparisons of compound effects.[1]−[19] […] The descriptors themselves and their respective scores are detailed in the Supporting Information, Table S1. Severity score data are presented in the results (with the corresponding descriptors detailed in the Supporting Information, Tables S2–S8), and eight new analogs developed and synthesized in support of this effort are described. Finally, absorption, distribution, metabolism and excretion (ADME) data of all compounds presented in this work are reported in the Supporting Information, Table S15.
Table S1. Descriptors and associated severity scores used for S. mansoni adults.
R (rounded or shape altered 1
On sides (adults unable to 1
Shrunk (adults are shorter 1
surface (tegument) of adults)
dfailed to create analytical method
Maintenance of the Schistosoma mansoni life cycle (NMRI isolate), the preparation of adult worms (≥ 42-
days-old), and their co-incubation with test compounds were as described.7-9 Phenotypic responses were
visually recorded using a constrained nomenclature and converted to severity scores on a scale from zero
(no activity) to 4 (maximal activity).8, 9 Use of hamsters for maintaining the S. mansoni life-cycle was
approved by the Institutional Animal Care and Use Committee of the University of California San Diego.
The human myelomonocytic cell line THP -1 was grown at 37 °C and 5% CO2 in RPMI-1640 supplemented
with 10% iFBS, 2 mM glutamate, 100 U/mL penicillin and […] streptomycin.
Drug toxicity to HepG2 cells .10 HepG2 cells line were obtained from the American Type Culture
Collection and cultured in Minimal Essential Medium (MEM) supplemented with 0.19% sodium
bicarbonate, 10% Fetal Bovine Serum, 2 mM L -glutamine, 0.1 mM MEM non-essential amino, 0.009
mg/mL insulin, 1.76 mg/mL bovine serum albumin. The viability of the cells was measured using the MTT
(thiazolyl blue reduction) method. Briefly, ninety -six-well plates were seeded with 2.5 × 10^4 cells/well in
170 ml of culture medium and incubated overnight in 5% CO 2 at 37 °C. Cells were exposed to different
experimental compounds in DMSO. After 48 hours incubation, the viability of the cells was assessed using
MTT (thiazolyl blue reduction) as a dose response assay (11 two -fold serial dilutions) to obtain a calculated
IC50 determination. 4-Azaindolo[2,1-b]quinazoline-6,12-dione is used as a toxicity positive control and
each assay plate includes the following 3 additional controls: a) background control: no cells and no drug
was added, b) target control: cells added but no drugs, and c) DMSO control: same as the target control
except the culture media contains 0.6% DMSO. Absorbance was determined in all wells using a Perkin
Elmer, Ensight plate reader. The fifty percent inhibitory concentrations (IC50’s) were determined using
GraphPad Prism nonlinear regr ession (sigmoidal dose -response, variable slope) equation .
ADME Experiment Protocols
Aqueous pH 7.4 Solubility. Compounds were dried down from 10 mM DMSO solutions using centrifugal
evaporation technique. Phosphate buffer (0.1 M pH 7.4) was added and StirStix were inserted in the glass
vials, with shaking then performed at a constant temperature of 25 °C for 20 -24 h. This step was followed
by double centrifugation with a tip wash in between, to ensure that no residues of the dried compounds
interfere. The solutions were diluted before analysis and quantification using LC/MS/MS was performed.

| logD [1] | hepatocyte CLint [2] [µL/min/1e6 cells] | SMILES | Descriptors (10 µM) 1 h [3] | Severity Scores (10 μM) 1 h [3] | Descriptors (10 µM) 5 h [3] | Severity Scores (10 μM) 5 h [3] | Descriptors (10 µM) 24 h [3] | Severity Scores (10 μM) 24 h [3] | bioactivity against adult S. mansoni [3] | Descriptors (10 µM) 48 h [3] | Severity Scores (10 μM) 48 h [3] |
| --- | --- | --- | --- | --- | --- | --- | --- | --- | --- | --- | --- |
| 1.7 | 8.1 | CN1CCN(c2ncc(-c3ccc4c(N[C@@H]5CCCC[C@H]5O)ccnc4c3)cn2)CC1 [S1c] | none | 0 | none | 0 | none | 0 | no significant bioactivity | – | – |
| – | – | CN1CCN(c2ncc(-c3ccc4c(Nc5cnccn5)ccnc4c3)cn2)CC1 [compound 3] | none | 0 | none | 0 | none | 0 | no bioactivity | none | 0 |
| 2.6 | 54 | CN1CCCN(c2ncc(-c3ccc4c(Nc5cnccn5)ccnc4c3)cn2)CC1 [4d] | none | 0 | none | 0 | none | 0 | complete loss in activity | none | 0 |
| 2.7 | 30 | CCN1CCCN(c2ncc(-c3ccc4c(Nc5cnccn5)ccnc4c3)cn2)CC1 [4e] | none | 0 | none | 0 | none | 0 | – | none | 0 |
| 1.2 | 1 | CN1CCN(c2ncc(-c3ccc4c(NCCN5CCCC5)ccnc4c3)cn2)CC1 [S1b] | none | 0 | none | 0 | none | 0 | no significant bioactivity | – | 1 |
| 3.4 | 120 | COc1ccc(NC(=O)c2ccc(-c3cnc(N4CCCN(C)CC4)nc3)cc2O)cc1Cl [7b] | none | 0 | – | 1 | – | 2 | minimal bioactivity after 5 h and potent activity after 48 h | – | 4 |
| 4.2 | 45 | CCCN1CCN(c2ncc(-c3ccc4c(Nc5cnccn5)ccnc4c3)cn2)CC1 [4c] | none | 0 | – | 1 | On sides, S | 2 | activity after 5 h | – | 4 |
| 3.3 | 52 | Cc1c(-c2cnc(N3CCN(C)CC3)nc2)ccc2c(Nc3cnccn3)ccnc12 [9a] | none | 0 | none | 0 | – | 1 | moderate potency after 24 h | – | 2 |
| 1.7 | – | CN1CCN(c2ncc(-c3ccc4c(NC5CCOCC5)ccnc4c3)cn2)CC1 [S1d] | none | 0 | none | 0 | none | 0 | no significant bioactivity | none | 0 |
